Toxic doses and inconclusive results are not listed. Cut-off read from the data, not from the text of the source: active = T/C of 150% or more; inactive = T/C below 125%.
Tested on: L1210 leukemia ip in BDF1 mice, survival T/C
Assay: NCI In Vivo Anticancer Drug Screen. Data for tumor model L1210 Leukemia (intraperitoneal) in B6D2F1 (BDF1) mice
Conditions: endpoint: mean survival time, higher = longer survival
Outline: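 Value reflects the ratio of survival in compound-treated mice to survival in vehicle-treated controls, with both groups carrying the same transplanted tumor.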

[1] = dose: 100.0 mg/kg/injection, schedule: Q01DX009 (ip), vehicle: Klucel (hydroxypropylcellulose) (HPC)
[2] = dose: 100.0 mg/kg/injection, schedule: Q04DX003 (ip), vehicle: Klucel (hydroxypropylcellulose) (HPC)
[3] = dose: 200.0 mg/kg/injection, schedule: Q01DX009 (ip), vehicle: Klucel (hydroxypropylcellulose) (HPC)
[4] = dose: 200.0 mg/kg/injection, schedule: Q04DX003 (ip), vehicle: Klucel (hydroxypropylcellulose) (HPC)
[5] = dose: 400.0 mg/kg/injection, schedule: Q04DX003 (ip), vehicle: Klucel (hydroxypropylcellulose) (HPC)

Measured: T/C

CCCCOP(=O)(CCl)OCCCC
inactive: [1] 98 % of control | [2] 97 % of control | [3] 103 % of control | [4] 97 % of control | [5] 95 % of control

O=C(Nc1cccc(C(F)(F)F)c1)C(c1ccccc1)c1ccccc1
inactive: dose: 50.0 mg/kg/injection, schedule: Q04DX003 (ip), vehicle: Klucel (hydroxypropylcellulose) (HPC) 98 % of control | [1] 100 % of control | [2] 110 % of control | [3] 100 % of control | [4] 93 % of control | [5] 101 % of control

O=C([O-])c1ccccc1[S+](c1ccccc1)c1ccccc1
inactive: dose: 18.0 mg/kg/injection, schedule: Q04DX002 (ip), vehicle: saline with Tween-80 104 % of control

CNC(=S)Nc1ccccc1
inactive: dose: 100.0 mg/kg/injection, schedule: Q04DX003 (ip), vehicle: carboxymethylcellulose (CMC) 95 % of control | dose: 200.0 mg/kg/injection, schedule: Q04DX003 (ip), vehicle: carboxymethylcellulose (CMC) 96 % of control

Cc1c(-[n+]2ccccc2)[nH]c2ccccc12
inactive: dose: 5.0 mg/kg/injection, schedule: Q01DX001 (ip), vehicle: saline 103 % of control | dose: 10.0 mg/kg/injection, schedule: Q01DX001 (ip), vehicle: saline 103 % of control | dose: 20.0 mg/kg/injection, schedule: Q01DX001 (ip), vehicle: saline 101 % of control | dose: 40.0 mg/kg/injection, schedule: Q01DX001 (ip), vehicle: saline 104 % of control | dose: 80.0 mg/kg/injection, schedule: Q01DX001 (ip), vehicle: saline 106 % of control | dose: 100.0 mg/kg/injection, schedule: Q01DX001 (ip), vehicle: saline 92 % of control

CC1=CC(C)(C)NC(=S)N1c1ccc(N=Nc2ccccc2)cc1
inactive: dose: 334.0 mg/kg/injection, schedule: Q01DX Z (ip), vehicle: methylcellulose (MC) 91 % of control | dose: 500.0 mg/kg/injection, schedule: Q01DX Z (ip), vehicle: methylcellulose (MC) 92 % of control

CCOC(=O)CC(=Nc1ccccc1OC)C(=O)OCC
inactive: [1] 97 % of control | [2] 105 % of control | [3] 98 % of control | [4] 98 % of control | dose: 400.0 mg/kg/injection, schedule: Q01DX009 (ip), vehicle: Klucel (hydroxypropylcellulose) (HPC) 91 % of control | [5] 107 % of control

O=[N+]([O-])c1cccc(OCCCOc2ccccc2)c1
inactive: dose: 100.0 mg/kg/injection, schedule: Q01DX009 (ip), vehicle: other 100 % of control | dose: 200.0 mg/kg/injection, schedule: Q01DX009 (ip), vehicle: other 92 % of control | dose: 400.0 mg/kg/injection, schedule: Q01DX009 (ip), vehicle: other 103 % of control

O=C1OCC(CN2CC3CCC(CC3)C2)=C1c1ccccc1
inactive: dose: 100.0 mg/kg/injection, schedule: Q01DX001 (ip), vehicle: Klucel (hydroxypropylcellulose) (HPC) 94 % of control | dose: 200.0 mg/kg/injection, schedule: Q01DX001 (ip), vehicle: Klucel (hydroxypropylcellulose) (HPC) 102 % of control | dose: 400.0 mg/kg/injection, schedule: Q01DX001 (ip), vehicle: Klucel (hydroxypropylcellulose) (HPC) 94 % of control

O=C(Nc1ccc(OP(=O)(O)O)cc1)c1ccc(C(=O)Nc2ccc(OP(=O)(O)O)cc2)cc1
inactive: dose: 2.5 mg/kg/injection, schedule: Q01DX Z (ip), vehicle: water 96 % of control | dose: 5.0 mg/kg/injection, schedule: Q01DX Z (ip), vehicle: water 104 % of control | dose: 7.5 mg/kg/injection, schedule: Q01DX Z (ip), vehicle: water 93 % of control | dose: 10.0 mg/kg/injection, schedule: Q01DX Z (ip), vehicle: water 93 % of control | dose: 18.7 mg/kg/injection, schedule: Q01DX Z (ip), vehicle: water 104 % of control

C=CCNC(=S)N(C)Cc1ccccc1Cl
inactive: [1] 90 % of control | [3] 98 % of control

COc1ccc(NC(=O)/C=C/C(=O)O)cc1
inactive: dose: 100.0 mg/kg/injection, schedule: Q04DX002 (ip), vehicle: Klucel (hydroxypropylcellulose) (HPC) 103 % of control | dose: 200.0 mg/kg/injection, schedule: Q04DX002 (ip), vehicle: Klucel (hydroxypropylcellulose) (HPC) 95 % of control | dose: 400.0 mg/kg/injection, schedule: Q04DX002 (ip), vehicle: Klucel (hydroxypropylcellulose) (HPC) 120 % of control

O=C(O)c1ccc(N=Nc2nc3[nH]c(=O)[nH]c(=O)c3[nH]2)cc1
inactive: dose: 50.0 mg/kg/injection, schedule: Q01DX009 (ip), vehicle: Klucel (hydroxypropylcellulose) (HPC) 97 % of control | [1] 97 % of control | [3] 87 % of control

O=C(/C(=C\c1ccccc1)CBr)c1ccc(Cl)cc1
inactive: dose: 100.0 mg/kg/injection, schedule: Q04DX003 (ip), vehicle: saline with Tween-80 119 % of control

O=C(N/N=C/c1cccc2ccccc12)c1cccnc1
inactive: [1] 101 % of control

Cc1ccc([N+](=O)[O-])cc1NC(=O)SCCSC(=O)Nc1cc([N+](=O)[O-])ccc1C
inactive: [2] 90 % of control | [4] 92 % of control | [5] 92 % of control

— PubChem BioAssay AID248 (DTP/NCI, 2004)
